The results in this text go back to patent US9637473B2, “Acrylamide derivatives as antimalarial agents” (priority 2013, dated 2017).

Counter-ions that a name gives are not always drawn.

One test has as its system P. Falciparum NF54. Put plainly: Plasmodium falciparum in vitro assay ([3H]-hypoxanthine incorporation). As to conditions: P. Falciparum NF54, erythrocytic stages in human red blood cells, 50% human serum. It counts as cell-based. The method in brief: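 Activity against the blood stages of Plasmodium falciparum growing in human red blood cells was measured by how much [3H]-hypoxanthine the parasites took up. Filters were dried, sealed in plastic foil containing 10 mL of scintillation fluid, and read on a Betaplate liquid scintillation counter. IC50 values came from sigmoidal inhibition curves fitted in Microsoft Excel.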
The compound `CC(C)CCN1C[C@H]2CC(N(Cc3ccc(N(C)c4ccncc4)cc3)C(=O)/C=C/c3ccc(C(F)(F)F)cc3)C[C@H]2C1` (single isomer, unassigned) [Example 68] displayed an IC50 of 17 nM.
`CN1CCC(N2CCC(N(Cc3ccc(N(C)c4ccncc4)cc3)C(=O)/C=C/c3ccc(C(F)(F)F)cc3)C(F)C2)CC1` (racemic) [Example 79, (±)-(E)-N-(trans-3-fluoro-1′-methyl-[1,4′-bipiperidin]-4-yl)-N-(4-(methyl(pyridin-4-yl)amino)benzyl)-3-(4-(trifluoromethyl)phenyl)acrylamide] came in with an IC50 of 21 nM.

Staying with this test, now noted: Plasmodium falciparum, Erythrocyte, P. Falciparum NF54, erythrocytic stages in human red blood cells, 50% human serum.
`Cc1ccc(/C=C/C(=O)N(Cc2ccc(N(C)c3ccncc3)cc2)C2CCN(Cc3ccccc3)CC2)cc1` [Example 158, (E)-N-(1-Benzyl-piperidin-4-yl)-N-[4-(methyl-pyridin-4-yl-amino)-benzyl]-3-p-tolyl-acrylamide] yielded a 50% inhibitory concentration (IC50) of 190 nM.
Compound `CN(c1ccncc1)c1ccc(CN(C(=O)/C=C/c2ccc(C(F)(F)F)cc2)C2CCN(CCc3ccccc3)CC2)cc1` [Example 14, (E)-N-[4-(Methyl-pyridin-4-yl-amino)-benzyl]-N-(1-phenethyl-piperidin-4-yl)-3-(4-trifluoromethyl-phenyl)-acrylamide] gave an IC50 of 55 nM.
Same read-out and setting: to `Cc1cc(Nc2ccc(CN(C(=O)/C=C/c3ccc(C(F)(F)F)cc3)[C@H]3CCCN(C(C)C)C3)cn2)ccn1` [Example 120, (E)-N-((S)-1-Isopropyl-piperidin-3-yl)-N-[6-(2-methyl-pyridin-4-ylamino)-pyridin-3-ylmethyl]-3-(4-trifluoromethyl-phenyl)-acrylamide] belongs 90 nM.
The compound `Cc1cc(Nc2ccc(CN(C(=O)/C=C/c3ccc(Cl)cc3)C3CCN(C4CCCC4)CC3)nc2)ccn1` [Example 171, (E)-3-(4-Chloro-phenyl)-N-(1-cyclopentyl-piperidin-4-yl)-N-[5-(2-methyl-pyridin-4-ylamino)-pyridin-2-ylmethyl]-acrylamide] gave an IC50 of 134 nM.
The same measure, in the same setting: to `CC(C)CCN1CCC2(CCC(N(Cc3ccc(N(C)c4ccncc4)cc3)C(=O)/C=C/c3ccc(C(F)(F)F)cc3)CC2)CC1` [Example 69, (E)-N-(3-isopentyl-3-azaspiro[5.5]undecan-9-yl)-N-(4-(methyl(pyridin-4-yl)amino)benzyl)-3-(4-(trifluoromethyl)phenyl)acrylamide] belongs 41 nM.
Still for that read-out and setting: to `Cc1cc(Nc2ccc(CN(C(=O)/C=C/c3ccc(C(F)(F)F)cc3)C3CCN(Cc4cncnc4)CC3)cc2)ccn1` [Example 49, (E)-N-[4-(2-Methyl-pyridin-4-ylamino)-benzyl]-N-(1-pyrimidin-5-ylmethyl-piperidin-4-yl)-3-(4-trifluoromethyl-phenyl)-acrylamide] belongs 280 nM.
The same measure, in the same setting: for `O=C(/C=C/c1ccc(C(F)(F)F)cc1)N(Cc1ccnc(N2CCCC2)c1)C1CCN(C2CCCC2)CC1` [Example 206, (E)-N-(1-Cyclopentyl-piperidin-4-yl)-N-(2-pyrrolidin-1-yl-pyridin-4-ylmethyl)-3-(4-trifluoromethyl-phenyl)-acrylamide] the value was 451 nM; for `Cc1cc(Nc2ccc(CN(C(=O)/C=C/c3ccc(C(F)(F)F)cc3)C3CCN(C4CCCC4)CC3)cc2)c2ccccc2n1` [Example 85, (E)-N-(1-Cyclopentyl-piperidin-4-yl)-N-[4-(2-methyl-quinolin-4-ylamino)-benzyl]-3-(4-trifluoromethyl-phenyl)-acrylamide], 43 nM.
The compound `Cc1cc(Nc2ccc(CN(C(=O)/C=C/c3ccc(C(F)(F)F)cc3)C3CCN(C4CCCC4)CC3)cc2)ccn1` [Example 95, (E)-N-(1-Cyclopentyl-piperidin-4-yl)-N-[4-(2-methyl-pyridin-4-ylamino)-benzyl]-3-(4-trifluoromethyl-phenyl)-acrylamide] displayed an IC50 of 13 nM.
As for `CN(c1ccncc1)c1ccc(CN(C(=O)/C=C/c2ccc(C(F)(F)F)cc2)[C@H]2CC[C@H](N3CCCC3)CC2)cc1` [Example 193, (±)-trans-(E)-N-[4-(Methyl-pyridin-4-yl-amino)-benzyl]-N-(4-pyrrolidin-1-yl-cyclohexyl)-3-(4-trifluoromethyl-phenyl)-acrylamide], the IC50 came out at 49 nM.
The same measure, in the same setting: for `Cc1cc(Nc2ccc(CN(C(=O)/C=C/c3ccc(C(F)(F)F)cc3)C3CCN(Cc4cnc(C)nc4)CC3)cc2)ccn1` [Example 51, (E)-N-[4-(2-Methyl-pyridin-4-ylamino)-benzyl]-N-[1-(2-methyl-pyrimidin-5-ylmethyl)-piperidin-4-yl]-3-(4-trifluoromethyl-phenyl)-acrylamide] the value was 268 nM; for `CC(C)N1CCC(N(Cc2cncc(Nc3ccncc3)c2)C(=O)/C=C/c2ccc(C(F)(F)F)cc2)CC1` [Example 141, (E)-N-(1-Isopropyl-piperidin-4-yl)-N-[5-(pyridin-4-ylamino)-pyridin-3-ylmethyl]-3-(4-trifluoromethyl-phenyl)-acrylamide formate], 82 nM.
In the case of `COc1cccc(/C=C/C(=O)N(Cc2ccc(N(C)c3ccncc3)cc2)C2CCN(Cc3ccccc3)CC2)c1` [Example 150, (E)-N-(1-Benzyl-piperidin-4-yl)-3-(3-methoxy-phenyl)-N-[4-(methyl-pyridin-4-yl-amino)-benzyl]-acrylamide], the midpoint of inhibition, the IC50, lay at 293 nM.
As to `CN(c1ccncc1)c1ccc(CN(C(=O)/C=C/c2ccccc2F)C2CCN(Cc3ccccc3)CC2)cc1` [Example 157, (E)-N-(1-Benzyl-piperidin-4-yl)-3-(2-fluoro-phenyl)-N-[4-(methyl-pyridin-4-yl-amino)-benzyl]-acrylamide], the IC50 is 190 nM.
Take `CCN1CCC[C@H](N(Cc2ccc(N(C)c3ccncc3)cc2)C(=O)/C=C/c2ccc(C(F)(F)F)cc2)C1` [Example 82, (E)-N-((S)-1-Ethyl-piperidin-3-yl)-N-[4-(methyl-pyridin-4-yl-amino)-benzyl]-3-(4-trifluoromethyl-phenyl)-acrylamide]: the midpoint of inhibition, the IC50, lay at 140 nM.
The compound `CC(C)CCN1CCC(CN(Cc2ccc(N(C)c3ccncc3)cc2)C(=O)/C=C/c2ccc(C(F)(F)F)cc2)CC1` [Example 189, (E)-N-[1-(3-Methyl-butyl)-piperidin-4-ylmethyl]-N-[4-(methyl-pyridin-4-yl-amino)-benzyl]-3-(4-trifluoromethyl-phenyl)-acrylamide] displayed an IC50 of 34 nM.
Regarding `CN(c1ccncc1)c1ccc(CN(C(=O)/C=C/c2ccc(C(F)(F)F)cc2)C2CC3(C2)CN(C2CCCC2)C3)cc1` [Example 74, (E)-N-(2-cyclopentyl-2-azaspiro[3.3]heptan-6-yl)-N-(4-(methyl(pyridin-4-yl)amino)benzyl)-3-(4-(trifluoromethyl)phenyl)acrylamide], the concentration for half-maximal inhibition (IC50) worked out at 41 nM.
As for `CC(C)Oc1ccc(/C=C/C(=O)N(Cc2ccc(N(C)c3ccncc3)cc2)C2CCN(Cc3ccccc3)CC2)cc1` [Example 143, (E)-N-(1-Benzyl-piperidin-4-yl)-3-(4-isopropoxy-phenyl)-N-[4-(methyl-pyridin-4-yl-amino)-benzyl]-acrylamide], the midpoint of inhibition, the IC50, lay at 102 nM.
`CN(c1ccncc1)c1ccc(CN(C(=O)/C=C/c2ccc(C(F)(F)F)cc2)C2CCC3(CC2)CCN(C2CCCC2)CC3)cc1` [Example 67, (E)-N-(3-cyclopentyl-3-azaspiro[5.5]undecan-9-yl)-N-(4-(methyl(pyridin-4-yl)amino)benzyl)-3-(4-(trifluoromethyl)phenyl)acrylamide] registered an IC50 of 40 nM.
For the compound `Cc1cc(Nc2ccc(CN(C(=O)/C=C/c3ccc(Cl)cc3)C3CCN(C4CCN(C)CC4)CC3)cc2)ccn1` [Example 117, (E)-3-(4-Chloro-phenyl)-N-(1′-methyl-[1,4′]bipiperidinyl-4-yl)-N-[4-(2-methyl-pyridin-4-ylamino)-benzyl]-acrylamide], the 50% inhibitory concentration (IC50) came to 305 nM.
Regarding `CN(c1ccncc1)c1ccc(CN(C(=O)/C=C/c2ccc(OC(F)F)cc2)C2CCN(Cc3ccccc3)CC2)cc1` [Example 145, (E)-N-(1-Benzyl-piperidin-4-yl)-3-(4-difluoromethoxy-phenyl)-N-[4-(methyl-pyridin-4-yl-amino)-benzyl]-acrylamide], the midpoint of inhibition, the IC50, lay at 69 nM.
Consider `Cc1cc(N(C)c2ccc(CN(C(=O)/C=C/c3ccc(C(F)(F)F)cc3)C3CCN(C4CCCC4)CC3)cc2)ccn1` [Example 184, (E)-N-(1-Cyclopentyl-piperidin-4-yl)-N-{4-[methyl-(2-methyl-pyridin-4-yl)-amino]-benzyl}-3-(4-trifluoromethyl-phenyl)-acrylamide], for which inhibition was half-maximal at 44 nM (IC50).
Same read-out and setting: to `Cc1cc(Nc2ccc(CN(CCCN3CCOCC3)C(=O)/C=C/c3ccc(C(F)(F)F)cc3)cc2)ccn1` [Example 173, (E)-N-[4-(2-Methyl-pyridin-4-ylamino)-benzyl]-N-(3-morpholin-4-yl-propyl)-3-(4-trifluoromethyl-phenyl)-acrylamide] belongs 355 nM; to `Cc1cc(Nc2ccc(CN(C(=O)/C=C/c3ccc(OC(F)(F)F)cc3)C3CCN(C4CCN(C)CC4)CC3)cc2)ccn1` [Example 119, (E)-N-(1′-Methyl-[1,4′]bipiperidinyl-4-yl)-N-[4-(2-methyl-pyridin-4-ylamino)-benzyl]-3-(4-trifluoromethoxy-phenyl)-acrylamide], 46 nM.
Compound `O=C(/C=C/c1ccc(C(F)(F)F)cc1)N(Cc1ccc(Nc2ccnc3cc(C(F)(F)F)ccc23)cc1)C1CCN(C2CCCC2)CC1` [Example 90, (E)-N-(1-Cyclopentyl-piperidin-4-yl)-3-(4-trifluoromethyl-phenyl)-N-[4-(7-trifluoromethyl-quinolin-4-ylamino)-benzyl]-acrylamide] came in with a half-inhibitory concentration (IC50) of 138 nM.
The compound `CC(C)CCN1CCC[C@@H](N(Cc2ccc(N(C)c3ccncc3)cc2)C(=O)/C=C/c2ccc(C(F)(F)F)cc2)C1` [Example 62, (R,E)-N-(1-isopentylpiperidin-3-yl)-N-(4-(methyl(pyridin-4-yl)amino)benzyl)-3-(4-(trifluoromethyl)phenyl)acrylamide] registered a half-inhibitory concentration (IC50) of 70 nM.

As usually defined, the IC50 is the concentration needed to halve the response being measured. The low end stands for greater potency, the high end for weaker potency.
